We go through two compounds from article PMC12036747, “Effects of galloflavin and ellagic acid on sirtuin 6 and its anti-tumorigenic activities” (Biomedicine & pharmacotherapy = Biomedecine & …, 2020).

Holding throughout (type): biochemical
One assay concerns the target T1, SIRT1 (Homo sapiens, UniProt Q96EB6).
T1 sequence (Q96EB6 2-747): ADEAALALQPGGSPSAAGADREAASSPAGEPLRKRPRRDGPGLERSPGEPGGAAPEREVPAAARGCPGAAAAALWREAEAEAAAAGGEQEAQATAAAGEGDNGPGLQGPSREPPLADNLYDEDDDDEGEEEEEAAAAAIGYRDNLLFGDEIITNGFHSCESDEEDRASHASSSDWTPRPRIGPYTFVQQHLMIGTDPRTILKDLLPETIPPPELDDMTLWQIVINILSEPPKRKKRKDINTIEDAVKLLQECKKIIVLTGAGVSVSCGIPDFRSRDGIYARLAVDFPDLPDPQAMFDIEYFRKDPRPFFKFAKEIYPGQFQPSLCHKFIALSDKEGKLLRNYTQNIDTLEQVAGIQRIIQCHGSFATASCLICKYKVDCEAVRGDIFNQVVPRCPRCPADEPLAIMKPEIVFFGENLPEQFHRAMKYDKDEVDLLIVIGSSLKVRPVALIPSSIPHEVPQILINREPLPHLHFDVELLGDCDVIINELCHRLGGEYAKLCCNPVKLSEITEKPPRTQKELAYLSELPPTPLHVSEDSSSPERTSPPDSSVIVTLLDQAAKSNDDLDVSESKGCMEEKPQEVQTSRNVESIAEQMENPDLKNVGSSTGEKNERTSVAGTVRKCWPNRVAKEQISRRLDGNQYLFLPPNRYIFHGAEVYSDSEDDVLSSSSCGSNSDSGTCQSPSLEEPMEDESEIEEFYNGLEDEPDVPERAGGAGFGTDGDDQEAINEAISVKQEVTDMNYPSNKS
Put plainly: Fluor de Lys deacetylation assay, moderate inhibition at […].

Another assay deals with T2, SIRT3 (Homo sapiens, UniProt Q9NTG7).
T2 sequence (Q9NTG7 102-399): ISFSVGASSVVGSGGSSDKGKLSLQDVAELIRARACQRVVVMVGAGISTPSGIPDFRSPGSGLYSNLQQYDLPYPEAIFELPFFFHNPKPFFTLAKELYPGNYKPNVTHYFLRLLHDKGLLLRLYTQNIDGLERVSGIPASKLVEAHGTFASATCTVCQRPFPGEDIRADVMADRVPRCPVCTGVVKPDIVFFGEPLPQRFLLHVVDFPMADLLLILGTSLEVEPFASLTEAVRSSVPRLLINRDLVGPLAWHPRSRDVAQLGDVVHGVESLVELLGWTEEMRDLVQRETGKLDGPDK
Described as above.

In assay [1] the target is T3, Sirtuin 6 (SIRT6) (Homo sapiens, UniProt Q8N6T7).
T3 construct: recombinant GST-tagged human SIRT6
Put plainly: HPLC deacetylation assay with H3K9Ac peptide (activation); immunoblot with core histones; Michaelis-Menten kinetics. In general terms: In western blotting, separated proteins are transferred to a membrane and probed.

For the next assay, the target named is T4, SIRT2 (Homo sapiens, UniProt Q8IXJ6).
T4 sequence (Q8IXJ6 2-389): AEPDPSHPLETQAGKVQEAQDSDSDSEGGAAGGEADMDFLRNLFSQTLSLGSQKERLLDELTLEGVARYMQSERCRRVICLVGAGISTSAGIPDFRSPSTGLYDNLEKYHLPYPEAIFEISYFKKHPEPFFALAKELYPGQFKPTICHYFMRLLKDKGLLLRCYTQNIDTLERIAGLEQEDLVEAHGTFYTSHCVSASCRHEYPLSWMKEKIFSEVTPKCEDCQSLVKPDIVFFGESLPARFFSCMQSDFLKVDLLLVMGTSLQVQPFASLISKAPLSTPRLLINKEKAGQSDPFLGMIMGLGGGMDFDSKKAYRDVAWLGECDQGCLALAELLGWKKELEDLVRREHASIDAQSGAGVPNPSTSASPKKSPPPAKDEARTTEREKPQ
Put plainly: Fluor de Lys deacetylation assay, inhibition at […].

The target in assay [2] is T3, Sirtuin 6 (SIRT6). Put plainly: HPLC deacetylation assay with H3K9Ac peptide (activation); immunoblot with core histones.

T3 sequence (Q8N6T7 2-355): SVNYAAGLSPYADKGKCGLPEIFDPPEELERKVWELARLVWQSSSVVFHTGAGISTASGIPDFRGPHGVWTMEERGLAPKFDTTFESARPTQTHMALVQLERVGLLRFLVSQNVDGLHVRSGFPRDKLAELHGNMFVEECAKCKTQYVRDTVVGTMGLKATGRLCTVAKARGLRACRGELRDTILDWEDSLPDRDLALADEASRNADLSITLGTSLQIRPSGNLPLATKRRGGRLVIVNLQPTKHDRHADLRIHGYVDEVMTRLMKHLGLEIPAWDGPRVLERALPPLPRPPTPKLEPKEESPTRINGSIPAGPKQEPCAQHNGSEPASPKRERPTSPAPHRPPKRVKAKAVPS

Take `O=c1oc2c(O)c(O)cc3c(=O)oc4c(O)c(O)cc1c4c23` [Ellagic acid]: the “Fluor de Lys deacetylation assay, moderate inhibition at 100 μM” value is “Galloflavin and Ellagic acid displayed moderate inhibition against SIRT1 and SIRT3” on SIRT1; “Galloflavin and Ellagic acid displayed moderate inhibition against SIRT1 and SIRT3” on SIRT3. In addition, the EC50 (usually the concentration at which the effect is half-maximal) on Sirtuin 6 (SIRT6) [1] stood at 25 µM. Besides, the “%” value on SIRT2 is on record as “up to 60 % inhibition at 100 μM”.

Compound `O=c1oc2c(cc1O)oc(=O)c1cc(O)c(O)c(O)c12` [Galloflavin] registered an EC50 on Sirtuin 6 (SIRT6) [2] of 79 µM. The “Fluor de Lys deacetylation assay, moderate inhibition at 100 μM” value on SIRT1 was “Galloflavin and Ellagic acid displayed moderate inhibition against SIRT1 and SIRT3”; at SIRT3 it was “Galloflavin and Ellagic acid displayed moderate inhibition against SIRT1 and SIRT3”. The “%” value on SIRT2 was “up to 60 % inhibition at 100 μM”.
